Experiments:
Experiment in all cases: relative viability (nuclei count vs DMSO), 5 days (fraction); higher = more cells survive
ALW-II-49-7 + Bortezomib = compound: Cc1ccc(C(=O)Nc2cccc(C(F)(F)F)c2)cc1Nc1cncc(C(N)=O)c1 [ALW-II-49-7] + CC(C)C[C@H](NC(=O)[C@H](Cc1ccccc1)NC(=O)c1cnccn1)B(O)O [Bortezomib] (partner 0.002 µM)
Outline: (§1)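 Cells from lung cancer lines were seeded into 1536-well plates and, one day later, dosed by pin tool. Treatments were either a single drug or a fixed dose of an anchor drug with five library-drug doses (not always all listed) in √10 steps. After 5 days, nuclei were stained in a one-step fixation (final 0.05% Triton X-100, 1% formaldehyde, 1 ug/ml Hoechst) and counted on 4× images, and relative viability is the treated-to-vehicle nuclei ratio, as the median of duplicate plates.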

ALW-II-49-7 + Luminespib = compound: Cc1ccc(C(=O)Nc2cccc(C(F)(F)F)c2)cc1Nc1cncc(C(N)=O)c1 [ALW-II-49-7] + CCNC(=O)c1noc(-c2cc(C(C)C)c(O)cc2O)c1-c1ccc(CN2CCOCC2)cc1 [Luminespib] (partner 0.01 µM)
Outline: as §1

XMD13-2 + Luminespib = compound: C1CC1C(=O)NC2=NNC3=C2C=CC(=C3)C4=CC(=CC=C4)C(=O)NC5CC5 [XMD13-2] + CCNC(=O)c1noc(-c2cc(C(C)C)c(O)cc2O)c1-c1ccc(CN2CCOCC2)cc1 [Luminespib] (partner 0.01 µM)
Outline: as §1

Dasatinib + Vorinostat = compound: Cc1nc(Nc2ncc(C(=O)Nc3c(C)cccc3Cl)s2)cc(N2CCN(CCO)CC2)n1 [Dasatinib] + O=C(CCCCCCC(=O)Nc1ccccc1)NO [Vorinostat] (partner 1 µM)
Outline: as §1

Cell Line	relative viability (ALW-II-49-7 + Bortezomib; first compound 0.08 µM)	relative viability (ALW-II-49-7 + Bortezomib; first compound 0.253 µM)	relative viability (ALW-II-49-7 + Bortezomib; first compound 0.8 µM)	relative viability (ALW-II-49-7 + Bortezomib; first compound 2.53 µM)	relative viability (ALW-II-49-7 + Bortezomib; first compound 8 µM)	relative viability (ALW-II-49-7 + Luminespib; first compound 0.08 µM)	relative viability (ALW-II-49-7 + Luminespib; first compound 0.253 µM)	relative viability (ALW-II-49-7 + Luminespib; first compound 0.8 µM)	relative viability (ALW-II-49-7 + Luminespib; first compound 2.53 µM)	relative viability (ALW-II-49-7 + Luminespib; first compound 8 µM)	relative viability (XMD13-2 + Luminespib; first compound 0.05 µM)	relative viability (XMD13-2 + Luminespib; first compound 0.1581 µM)	relative viability (XMD13-2 + Luminespib; first compound 0.5 µM)	relative viability (XMD13-2 + Luminespib; first compound 1.581 µM)	relative viability (XMD13-2 + Luminespib; first compound 5 µM)	relative viability (Dasatinib + Vorinostat; first compound 0.005 µM)	relative viability (Dasatinib + Vorinostat; first compound 0.01581 µM)	relative viability (Dasatinib + Vorinostat; first compound 0.05 µM)	relative viability (Dasatinib + Vorinostat; first compound 0.1581 µM)	relative viability (Dasatinib + Vorinostat; first compound 0.5 µM)
NCI-H2087	0.759	0.959	0.824	0.846	0.857	0.142	0.166	0.197	0.171	0.171	0.164	0.159	0.217	0.198	0.152	0.954	0.494	0.778	0.714	0.156
NCI-H2126	1.09	1.17	1.2	1.08	1.17	0.938	0.932	0.855	0.803	0.868	0.899	0.977	0.957	0.832	0.92	0.796	0.597	0.755	0.521	0.312
NCI-H2228	1.06	0.636	0.975	0.915	1.16	0.255	0.14	0.16	0.145	0.215	0.144	0.218	0.166	0.129	0.178	0.618	0.564	0.333	0.387	0.388
NCI-H2347	0.539	1.28	1.08	0.23	0.566	0.241	0.483	0.363	0.324	0.512	0.405	0.342	0.486	0.54	0.791	0.422	0.298	0.363	0.263	0.238
NCI-H2405	1.05	0.886	1.09	0.954	0.89	0.788	0.598	0.646	0.474	0.459	0.853	0.634	0.578	0.641	0.633	0.838	0.597	0.427	0.188	0.227

Source: the supplement of paper PMC10307832
